The source of these data is patent publication US20070276134A1, “COMPOSITIONS AND METHODS FOR COMPLEXES OF NUCLEIC ACIDS AND ORGANIC CATIONS” (NASTECH PHARMACEUTICAL COMPANY INC., priority 2006, published 2007).

The nature of this data set: LogP determination in n-octanol and water, classical equilibrium partitioning method.

By LogP is commonly meant the decadic logarithm of the partition coefficient of the neutral form, usually between octanol and water.

Experimental: A LogP determination was performed on the salts in n-octanol and water using the classical equilibrium partitioning method. This was performed to evaluate the hydrophobic physical properties of the peptide and determine if there was a difference in the apparent hydrophobicity of the salt form of the siRNA versus the control of the sodium salt of siRNA.

DOTAP: the “partitioning as a salt versus partitioning as the sodium salt siRNA complex of DOTAP” value (1-octanol) was “distinctly different”.
In the case of Sodium, the LogP (n-octanol and water, salt form of siRNA) was −1.98.
